ChEMBL document CHEMBL1828530, “Quinonoid and phenazine compounds: synthesis and evaluation against H37Rv, rifampicin and isoniazid-resistance strains of Mycobacterium tuberculosis” (Eur J Med Chem, 2011)
In brackets after ≈: the same amount, converted by molar mass.

Columns and labels:
[1] = tested on: Mycobacterium tuberculosis; assay: Antitubercular activity against rifampicin-resistant Mycobacterium tuberculosis ATCC 35338 harboring His-526-Tri mutation in rpoB gene after 9 days by resazurin reduction assay; format: functional
[2] = tested on: Mycobacterium tuberculosis; assay: Antitubercular activity against isoniazid-resistant Mycobacterium tuberculosis ATCC 35822 harboring Ser-315-Tri mutation in katG gene after 9 days by resazurin reduction assay; format: functional

SMILES | MIC [1] | MIC [2]
CO[C@H]1/C=C/O[C@@]2(C)Oc3c(C)c(O)c4c(O)c(c(/C=N/N5CCN(C)CC5)c(O)c4c3C2=O)NC(=O)/C(C)=C\C=C\[C@H](C)[C@H](O)[C@@H](C)[C@@H](O)[C@@H](C)[C@H](OC(C)=O)[C@@H]1C [RIFAMPIN] | 2.43 µM (≈ 2 µg/mL) | –
CC(C)CC1=C(OC2(CC(C)C)C(=O)C3=C(CCCC3)c3nc4ccccc4nc32)C(=O)C2=C(CCCC2)C1=O (stereo not drawn) | 46.4 µM (≈ 25 µg/mL) | 46.4 µM (≈ 25 µg/mL)
CCCC1=C(OC2(CCC)C(=O)C3=C(CCCC3)c3nc4ccccc4nc32)C(=O)C2=C(CCCC2)C1=O (stereo not drawn) | 195.7 µM (≈ 99.9 µg/mL) | >195.7 µM
CCCC1=C(O)C(=O)C2=C(CCCC2)C1=O | 113.5 µM (≈ 25 µg/mL) | 113.5 µM (≈ 25 µg/mL)
CC(C)=CCC1=C(OC2(CC=C(C)C)C(=O)c3ccccc3-c3nc4ccccc4nc32)C(=O)c2ccccc2C1=O (stereo not drawn) | 180.2 µM (≈ 99.9 µg/mL) | >180.2 µM
CC(C)CCC1=C(OC2(CCC(C)C)C(=O)C3=C(CCCC3)c3nc4ccccc4nc32)C(=O)C2=C(CCCC2)C1=O (stereo not drawn) | 176.4 µM (≈ 100 µg/mL) | >176.4 µM
C=CCC1=C(OC2(CC=C)C(=O)c3ccccc3-c3nc4ccccc4nc32)C(=O)c2ccccc2C1=O (stereo not drawn) | >200.8 µM | >200.8 µM
CCCC1=C(OC2(CCC)C(=O)c3ccccc3-c3nc4ccccc4nc32)C(=O)c2ccccc2C1=O (stereo not drawn) | >198.8 µM | >198.8 µM
C=CCc1c2[nH]c3ccccc3nc-2c2ccccc2c1=O | 174.8 µM (≈ 50.1 µg/mL) | 43.7 µM (≈ 12.5 µg/mL)
CC(C)CCc1c2[nH]c3ccccc3nc-2c2c(c1=O)CCCC2 | 39.1 µM (≈ 12.5 µg/mL) | >312.5 µM
CC(C)CC1=C(OC2(CC(C)C)C(=O)c3ccccc3-c3nc4ccccc4nc32)C(=O)c2ccccc2C1=O (stereo not drawn) | >188.3 µM | >188.3 µM
C=CCC1=C(O)C(=O)c2ccccc2C1=O | 116.8 µM (≈ 25 µg/mL) | 467.3 µM (≈ 100 µg/mL)
CC(C)=Cc1c2[nH]c3ccccc3nc-2c2ccccc2c1=O | 83.3 µM (≈ 25 µg/mL) | 83.3 µM (≈ 25 µg/mL)
CC(C)CCC1=C(O)C(=O)C2=C(CCCC2)C1=O | 50.4 µM (≈ 12.5 µg/mL) | 100.8 µM (≈ 25 µg/mL)
CCCC1=C(O)C(=O)c2ccccc2C1=O | 231.25 µM (≈ 50 µg/mL) | 462.5 µM (≈ 100 µg/mL)
NNC(=O)c1ccncc1 [ISONIAZID] | – | 1.45 µM (≈ 0.199 µg/mL)
CC(C)CC1=C(O)C(=O)c2ccccc2C1=O | 108.7 µM (≈ 25 µg/mL) | 217.4 µM (≈ 50.1 µg/mL)
CC(C)=CCC1=C(O)C(=O)c2ccccc2C1=O [LAPACHOL] | 206.6 µM (≈ 50.1 µg/mL) | 413.2 µM (≈ 100 µg/mL)
CC(C)CC1=C(O)C(=O)C2=C(CCCC2)C1=O | 53.35 µM (≈ 12.5 µg/mL) | 106.7 µM (≈ 25 µg/mL)
CC(C)Cc1c2[nH]c3ccccc3nc-2c2ccccc2c1=O | >331.1 µM | >331.1 µM
CC(C)CCC1=C(OC2(CCC(C)C)C(=O)c3ccccc3-c3nc4ccccc4nc32)C(=O)c2ccccc2C1=O (stereo not drawn) | >178.9 µM | >178.9 µM
CC(C)=CC1=C(O)C(=O)c2ccccc2C1=O | 13.7 µM (≈ 3.13 µg/mL) | 438.6 µM (≈ 100 µg/mL)
CC(C)Cc1c2[nH]c3ccccc3nc-2c2c(c1=O)CCCC2 | >326.8 µM | >326.8 µM
CC(C)CCc1c2[nH]c3ccccc3nc-2c2ccccc2c1=O | 39.5 µM (≈ 12.5 µg/mL) | 39.5 µM (≈ 12.5 µg/mL)
CC(C)CCC1=C(O)C(=O)c2ccccc2C1=O | 205 µM (≈ 50.1 µg/mL) | 205 µM (≈ 50.1 µg/mL)
